Here are results for 19 compounds from patent US20240254123A1, “PYRIDOPYRIMIDINE DERIVATIVES USEFUL AS WEE1 KINASE INHIBITORS” (APREA THERAPEUTICS, INC., priority 2021, published 2024).

Each structure is given as a SMILES string.

The experiment has as its target T1, WEE1 (Homo sapiens, UniProt P30291).
T1 construct: Drug treated cells are fixed and stained with propidium iodide (PI); endogenous in cells
Description: Guava flow cytometry cell cycle assay (DNA content per cell, propidium iodide). The experiment is classed as cell-based. The conditions noted are these: for WEE1 Guava MEC Guava MEC: single agent, unit assumed; for WEE1 Guava MEC with 20 nM GEM: in µM (unit assumed). The source says: In this example, compounds described herein were subject to an assay that detects changes the phases of the cell cycle upon drug treatment, permitting the identification of drugs that affect cell proliferation in a specific manner. For example, problematic DNA replication causes the percentage of cells in S phase to increase. Thus, quantification of cells in S phase permits identification of drugs that cause defects in DNA replication. Similarly, drugs that selectively defects in progression through G2/M can also be identified. Moreover, synergy between assayed drugs and known cell cycle regulators can be determined, as exemplified by the effect of ATR inhibition when combined with agents that slow DNA replication, which causes replication fork collapse into DSBs and complete loss of DNA synthesis. Two novel drugs can also be combined to quantify synergistic effects on specific cell cycle phases.
The assay operates by the quantification of DNA content per cell by flow cytometry. Cells are assessed for effects on cell cycle using a Guava EasyCyte™ flow cytometer (Austin, TX). Drug treated cells are fixed and stained with propidium iodide (PI) and resuspended in phosphate-buffered saline containing the PI staining buffer. During flow cytometry, PI is excited at 528 nm and is detected in a 610/20 bandpass. Readout of the […] is optical density of DNA-staining dye. The assay generates a histogram showing count of cells by amount of DNA, which is an indicator of place in the cell cycle. This rapid assay detects relative changes in the cell cycle upon drug treatment upon comparison vehicle-treated and single-agent controls for detection of combinatorial interactions. See, Table 4.

T1 sequence (P30291 whole entry): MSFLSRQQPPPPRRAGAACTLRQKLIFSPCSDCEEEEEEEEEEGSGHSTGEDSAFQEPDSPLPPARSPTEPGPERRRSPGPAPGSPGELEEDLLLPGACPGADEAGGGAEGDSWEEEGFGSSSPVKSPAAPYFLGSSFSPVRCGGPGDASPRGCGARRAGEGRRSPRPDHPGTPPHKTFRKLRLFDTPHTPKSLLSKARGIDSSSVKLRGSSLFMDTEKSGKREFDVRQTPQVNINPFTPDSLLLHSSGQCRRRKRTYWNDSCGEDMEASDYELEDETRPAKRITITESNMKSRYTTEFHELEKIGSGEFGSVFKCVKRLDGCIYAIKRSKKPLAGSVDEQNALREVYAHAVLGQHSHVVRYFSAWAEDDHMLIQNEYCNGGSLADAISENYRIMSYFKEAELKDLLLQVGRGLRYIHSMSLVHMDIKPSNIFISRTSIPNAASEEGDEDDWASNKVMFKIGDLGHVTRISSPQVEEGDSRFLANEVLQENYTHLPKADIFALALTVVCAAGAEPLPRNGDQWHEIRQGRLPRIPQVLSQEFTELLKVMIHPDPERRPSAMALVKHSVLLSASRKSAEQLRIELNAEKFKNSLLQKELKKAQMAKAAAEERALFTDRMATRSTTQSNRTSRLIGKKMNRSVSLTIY

In the case of `O=c1c2cnc(Nc3cnn(C4CCCNC4)c3)nc2c(Br)cn1-c1c(Cl)cccc1Cl` (centres unmarked) [Compound P13, 8-bromo-6-(2,6-dichlorophenyl)-2-[[1-(3-piperidyl)pyrazol-4-yl]amino]pyrido[4,3-d]pyrimidin-5-one], the WEE1 Guava MEC Guava MEC turned out to be 0.625 µM and the “WEE1 Guava MEC with 20 nM GEM” value is listed as 0.313.
As to `C=C(C)c1cn(-c2c(Cl)cccc2Cl)c(=O)c2cnc(Nc3cnn(C4CCN(C)CC4)c3)nc12` [Compound P7, 6-(2,6-dichlorophenyl)-8-isopropenyl-2-[[1-(1-methyl-4-piperidyl)pyrazol-4-yl]amino]pyrido[4,3-d]pyrimidin-5-one], the WEE1 Guava MEC Guava MEC turned out to be 2.5 µM and the “WEE1 Guava MEC with 20 nM GEM” value stood at 1.25.
For `NC1CCc2ccc(Nc3ncc4c(=O)n(-c5c(Cl)cccc5Cl)cc(Br)c4n3)cc21` (centres unmarked) [Compound P23, 2-[(3-aminoindan-5-yl)amino]-8-bromo-6-(2,6-dichlorophenyl)pyrido[4,3-d]pyrimidin-5-one], the WEE1 Guava MEC Guava MEC is 5 µM and the “WEE1 Guava MEC with 20 nM GEM” value is listed as 2.5.
Regarding `O=c1c2cnc(Nc3ccc4c(c3)C(O)CC4)nc2c(Br)cn1-c1c(Cl)cccc1Cl` (centres unmarked) [Compound P24, 8-bromo-6-(2,6-dichlorophenyl)-2-[(3-hydroxyindan-5-yl)amino]pyrido[4,3-d]pyrimidin-5-one], the WEE1 Guava MEC Guava MEC was 5 µM and the “WEE1 Guava MEC with 20 nM GEM” value is listed as 1.25.
For `Cc1cccc(F)c1-n1cc(Br)c2nc(Nc3cnn(C4CCNCC4)c3)ncc2c1=O` [Compound P25, 8-bromo-6-(2-fluoro-6-methyl-phenyl)-2-[[1-(4-piperidyl)pyrazol-4-yl]amino]pyrido[4,3-d]pyrimidin-5-one], the WEE1 Guava MEC Guava MEC worked out at 5 µM and the “WEE1 Guava MEC with 20 nM GEM” value stood at 0.625.
The matching figures for `CN(C)C1CCc2ccc(Nc3ncc4c(=O)n(-c5c(Cl)cccc5Cl)cc(Br)c4n3)cc21` (centres unmarked) [Compound P22, 8-bromo-6-(2,6-dichlorophenyl)-2-[[3-(dimethylamino)indan-5-yl]amino]pyrido[4,3-d]pyrimidin-5-one]: 2.5 µM and 1.25.
With `CN1Cc2cc(Nc3ncc4c(=O)n(-c5c(Cl)cccc5Cl)cc(Br)c4n3)ccc2C2(CC2)C1` [Compound P20, 8-bromo-6-(2,6-dichlorophenyl)-2-[(2-methylspiro[1,3-dihydroisoquinoline-4,1′-cyclopropane]-7-yl)amino]pyrido[4,3-d]pyrimidin-5-one], the WEE1 Guava MEC Guava MEC turned out to be 0.313 µM and the “WEE1 Guava MEC with 20 nM GEM” value is 0.156.
In the same order, the values of `Cc1ccc(Cl)c(-n2cc(Br)c3nc(Nc4cnn(C5CCNCC5)c4)ncc3c2=O)c1Cl` [Compound P14, 8-bromo-6-(2,6-dichloro-3-methyl-phenyl)-2-[[1-(4-piperidyl)pyrazol-4-yl]amino]pyrido[4,3-d]pyrimidin-5-one] are > 5 µM and 1.25.
With `Cc1cccc(C)c1-n1cc(Br)c2nc(Nc3cnn(C4CCN(C)CC4)c3)ncc2c1=O` [Compound P27, 8-bromo-6-(2,6-dimethylphenyl)-2-[[1-(1-methyl-4-piperidyl)pyrazol-4-yl]amino]pyrido[4,3-d]pyrimidin-5-one], the WEE1 Guava MEC Guava MEC was 1.25 µM and the “WEE1 Guava MEC with 20 nM GEM” value is 0.625.
In the same order, the values of `CCc1cn(-c2c(Cl)cccc2Cl)c(=O)c2cnc(Nc3cnn(C4CCN(C)CC4)c3)nc12` [Compound P5, 6-(2,6-dichlorophenyl)-8-ethyl-2-((1-(1-methylpiperidin-4-yl)-1H-pyrazol-4-yl)amino)pyrido[4,3-d]pyrimidin-5(6H)-one] are > 5 µM and 1.25.
Take `CC(C)c1cn(-c2c(Cl)cccc2Cl)c(=O)c2cnc(Nc3cnn(C4CCN(C)CC4)c3)nc12` [Compound P9, 6-(2,6-dichlorophenyl)-8-isopropyl-2-[[1-(1-methyl-4-piperidyl)pyrazol-4-yl]amino]pyrido[4,3-d]pyrimidin-5-one]: the WEE1 Guava MEC Guava MEC worked out at 5 µM and the “WEE1 Guava MEC with 20 nM GEM” value was found to be 1.25.
In the same order, the values of `C=C(C)c1cn(-c2c(Cl)cccc2Cl)c(=O)c2cnc(Nc3cnn(C4CCNCC4)c3)nc12` [Compound P6, 6-(2,6-dichlorophenyl)-2-((1-(piperidin-4-yl)-1H-pyrazol-4-yl)amino)-8-(prop-1-en-2-yl)pyrido[4,3-d]pyrimidin-5(6H)-one] are 5 µM and 1.25.
In the same order, the values of `CN1CCCC(n2cc(Nc3ncc4c(=O)n(-c5c(Cl)cccc5Cl)cc(Br)c4n3)cn2)C1` (centres unmarked) [Compound P12, 8-bromo-6-(2,6-dichlorophenyl)-2-[[1-(1-methyl-3-piperidyl)pyrazol-4-yl]amino]pyrido[4,3-d]pyrimidin-5-one] are > 1.25 µM and 0.625.
`O=c1c2cnc(Nc3ccc4c(c3)CNCC43CC3)nc2c(Br)cn1-c1c(Cl)cccc1Cl` [Compound P19, 8-bromo-6-(2,6-dichlorophenyl)-2-(spiro[2,3-dihydro-1H-isoquinoline-4,1′-cyclopropane]-7-ylamino)pyrido[4,3-d]pyrimidin-5-one]: the WEE1 Guava MEC Guava MEC is 0.313 µM and the “WEE1 Guava MEC with 20 nM GEM” value was 0.156.
In the same order, the values of `Cc1cccc(F)c1-n1cc(Br)c2nc(Nc3cnn(C4CCN(C)CC4)c3)ncc2c1=O` [Compound P26, 8-bromo-6-(2-fluoro-6-methyl-phenyl)-2-[[1-(1-methyl-4-piperidyl)pyrazol-4-yl]amino]pyrido[4,3-d]pyrimidin-5-one] are 5 µM and 0.625.
Regarding `Cc1cc(Cl)c(-n2cc(Br)c3nc(Nc4cnn(C5CCN(C)CC5)c4)ncc3c2=O)c(Cl)c1` [Compound P17, 8-bromo-6-(2,6-dichloro-4-methyl-phenyl)-2-[[1-(1-methyl-4-piperidyl)pyrazol-4-yl]amino]pyrido[4,3-d]pyrimidin-5-one], the WEE1 Guava MEC Guava MEC came out at 2.5 µM and the “WEE1 Guava MEC with 20 nM GEM” value was found to be 0.625.
In the same order, the values of `Cc1cc(Cl)c(-n2cc(Br)c3nc(Nc4cnn(C5CCNCC5)c4)ncc3c2=O)c(Cl)c1` [Compound P16, 8-bromo-6-(2,6-dichloro-4-methyl-phenyl)-2-[[1-(4-piperidyl)pyrazol-4-yl]amino]pyrido[4,3-d]pyrimidin-5-one] are 2.5 µM and 0.625.
In the same order, the values of `Cc1ccc(Cl)c(-n2cc(Br)c3nc(Nc4cnn(C5CCN(C)CC5)c4)ncc3c2=O)c1Cl` [Compound P15, 8-bromo-6-(2,6-dichloro-3-methyl-phenyl)-2-[[1-(1-methyl-4-piperidyl)pyrazol-4-yl]amino]pyrido[4,3-d]pyrimidin-5-one] are 5 µM and 1.25.
On to `Cc1cn(-c2c(Cl)cccc2Cl)c(=O)c2cnc(Nc3cnn(C4CCN(C)CC4)c3)nc12` [Compound P2, 6-(2,6-dichlorophenyl)-8-methyl-2-[[1-(1-methyl-4-piperidyl)pyrazol-4-yl]amino]pyrido[4,3-d]pyrimidin-5-one], for which the WEE1 Guava MEC Guava MEC amounted to 5 µM and the “WEE1 Guava MEC with 20 nM GEM” value turned out to be 1.25.
